Laboratory results taken from patent publication US20150204836A1, “SOLUBLE METAL SENSOR COMPOUNDS AND METHODS FOR MAKING AND USING THE SAME” (UNIVERSITY OF UTAH RESEARHC FOUNDATION, priority 2012, published 2015).
Converted amounts (≈) assume the structure as drawn.

Experiments:
[1] = Linear fluorescence detection response and detection limit for Hg^2+; details: 0.3 μM of Compound 1; corresponding to a 1% decrease of fluorescence intensity
Experimental: Linear detection response for Hg^2+ was determined/established for several concentrations of Compound 1. A linear detection response of Hg^2+ in the range 0 to 18 ppb for 0.3 μM of Compound 1 and a detection limit of 0.4 ppb for Hg^2+, corresponding to a 1% decrease of fluorescence intensity was determined (FIG. 2A).

[2] = Storage stability of metal sensor solution in HDPE/LDPE squeeze bottles; format: physicochemical; details: 7.4 μM in 50% glycerol-water, on shelf in room and outside in shade
Experimental: High density polyethylene (HDPE) and low density polyethylene (LDPE) squeeze bottles were used to store metal sensor solutions (7.4 μM Compound 1). One pair of HDPE and LDPE bottles was stored on shelf in room, and the other pair of bottles was stored outside in shade. Compound 1 is very stable in 50% glycerol-water without obvious change of absorbance and fluorescence spectra at least for 6 weeks.

[3] = pH tuning study, selectivity for Hg^2+ over 11 other metal ions (fluorescence quenching); details: 1.0 μM Compound 1, 11 metal ions each 5 μM, 2.0 μM Hg^2+, pH 4, 5, 6, 7
Experimental: The selectivity of the sensor Compound 1 for Hg^2+ over environmentally relevant alkali, alkaline earth and transition metal ions (K^+, […], Mg^2+, Ca^2+, Ba^2+, Zn^2+, Fe^2+, Ni^2+, Cd^2+, Pb^2+, Cu^2+) was investigated in different pH solution pH=4, 5, NaOAc 0.02M buffer, pH=6, PBS 0.02M buffer, pH 7 water (panel A pH 4.0, panel B pH 5.0, panel C pH 6.0, panel D pH 7.0). Fluorescence spectra of a 1.0 μM Compound 1 solution in the absence (A line) and presence (B line) of a mixture of all 11 metal ions (each 5 μM).

[4] = Temperature effect on fluorescence quenching by Hg^2+; details: one point assay, 1.0 μM Compound 1, 2.0 μM Hg^2+, 596 nm, varying temperatures
Source text: New sensors could be used to test water sources in quite different locations, at different seasons, and from diverse water sources.

[5] = Solubility in various solvents; format: physicochemical
Experimental: Compound 1 is a dark red color solid with solubility in water about 30 μM, much higher than detection concentration (0.3˜5 μM) that is commonly used in fluorometer or portable detector. Various solvents have been tested in the following table. For transferring Compound 1 as aliquots, ethanol-dichloromethane (DCM) (5:1) is a good solvent giving good solubility and easy evaporation of solvent.

[6] = Spectral properties (absorbance, extinction coefficient, emission) in various solvents; format: physicochemical

Compound: Cc1cn([C@@H]2C[C@@H](O)[C@H](CNC(=O)CCN3C(=O)c4cc(Oc5cccnc5)c5c6c(Oc7cccnc7)cc7c8c(cc(Oc9cccnc9)c(c9c(Oc%10cccnc%10)cc(c4c59)C3=O)c86)C(=O)N(CCC(=O)NC[C@H]3O[C@@H](n4cc(C)c(=O)[nH]c4=O)C[C@@H]3O)C7=O)O2)c(=O)[nH]c1=O [Compound 1, N-(((2R,3S,5R)-3-hydroxy-5-(5-methyl-2,4-dioxo-3,4-dihydropyrimidin-1(2H)-yl)tetrahydrofuran-2-yl)methyl)-3-(9-(3-((((2S,3R,5S)-3-hydroxy-5-(5-methyl-2,4-dioxo-3,4-dihydropyrimidin-1(2H)-yl)tetrahydrofuran-2-yl)methyl)amino)-3-oxopropyl)-1,3,8,10-tetraoxo-5,6,12,13-tetrakis(pyridin-3-yloxy)-9,10-dihydroanthra[2,1,9-def:6,5,10-d′e′f′]diisoquinolin-2(1H,3H,8H)-yl)propanamide]
- detection limit for Hg^2+ [1]: 0.4 ppb
- stable without obvious change of absorbance and fluorescence spectra [2]: ≥ 6 weeks
- fluorescence response on addition of Hg^2+ to mixture of 11 metal ions [3]: fluorescence quenching
- temperature effect on quenching efficiency [4]: small, but potentially significant, effect
- solubility ([5]; 15% glycerol in water, aqueous with cosolvent or surfactant or cyclodextrin, 15% Glycerol-H2O): ~50 µM (≈ 67.7 µg/mL)
- solubility ([5]; 30% glycerol in water, aqueous with cosolvent or surfactant or cyclodextrin, 30% Glycerol-H2O): > 86 µM
- solubility ([5]; 30% propylene glycol in water, aqueous with cosolvent or surfactant or cyclodextrin, 30% Propylene glycol-H2O): > 86 µM
- solubility ([5]; 50% glycerol in water, aqueous with cosolvent or surfactant or cyclodextrin, 50% Glycerol-H2O): > 86 µM
- solubility ([5]; 50% propylene glycol in water, aqueous with cosolvent or surfactant or cyclodextrin, 50% Propylene glycol-H2O): > 86 µM
- solubility ([5]; DMF, organic solvent or mixture): > 200 µM
- solubility ([5]; DMF-water (7:3), organic solvent or mixture, DMF-H2O (7:3)): > 200 µM
- solubility ([5]; ethanol, organic solvent or mixture): ~100 µM (≈ 135 µg/mL)
- solubility ([5]; ethanol-dichloromethane (5:1), organic solvent or mixture, Ethanol-DCM (5:1)): > 342 µM
- solubility ([5]; isopropanol, organic solvent or mixture): > 86 µM
- solubility ([5]; water): ~30 µM (≈ 40.6 µg/mL)
- ε (extinction coefficient) ([6]; 15% Glycerol-H2O): 15000 M⁻¹ cm⁻¹
- λmax,abs ([6]; 15% Glycerol-H2O): 564 nm
- λmax,flu ([6]; 15% Glycerol-H2O): 598 nm
- ε (extinction coefficient) ([6]; 30% Glycerol-H2O): 16970 M⁻¹ cm⁻¹
- λmax,abs ([6]; 30% Glycerol-H2O): 566 nm
- λmax,flu ([6]; 30% Glycerol-H2O): 598 nm
- ε (extinction coefficient) ([6]; 50% Glycerol-H2O): 16330 M⁻¹ cm⁻¹
- λmax,abs ([6]; 50% Glycerol-H2O): 565 nm
- λmax,flu ([6]; 50% Glycerol-H2O): 598 nm
- ε (extinction coefficient) ([6]; DMF-H2O (7:3)): 18900 M⁻¹ cm⁻¹
- λmax,abs ([6]; DMF-H2O (7:3)): 561 nm
- λmax,flu ([6]; DMF-H2O (7:3)): 595 nm
- ε (extinction coefficient) ([6]; Ethanol): 12830 M⁻¹ cm⁻¹
- λmax,abs ([6]; Ethanol): 557 nm
- λmax,flu ([6]; Ethanol): 594 nm
- ε (extinction coefficient) ([6]; Ethanol-DCM (5:1)): 16000 M⁻¹ cm⁻¹
- λmax,abs ([6]; Ethanol-DCM (5:1)): 558 nm
- λmax,flu ([6]; Ethanol-DCM (5:1)): 595 nm
- ε (extinction coefficient) ([6]; H2O): 12375 M⁻¹ cm⁻¹
- λmax,abs ([6]; H2O): 563 nm
- λmax,flu ([6]; H2O): 595 nm
- ε (extinction coefficient) ([6]; Isopropanol): 15200 M⁻¹ cm⁻¹
- λmax,abs ([6]; Isopropanol): 561 nm
- λmax,flu ([6]; Isopropanol): 594 nm
